Test results published in patent publication US5411933A, “Bromopropargyl quarternary ammonium compounds having antimicrobial activity” (Rohm & Haas Company, priority 1994, dated 1995).

Tests used:
[1] = system: Escherichia coli; test: minimum inhibitory concentration, broth two-fold serial dilution test, Escherichia coli; format: cell-based, Escherichia coli ATCC 11229; settings: for MIC: Escherichia coli, ATCC11229, Escherichia coli ATCC 11229, TSB media, lowest concentration with complete inhibition of growth, read-out: MIC (TSB media) Ecol; for MIC (TSB media) Ecol: Escherichia coli ATCC 11229, lowest concentration with complete inhibition of growth
Experimental: (§1) Bactericidal and fungicidal evaluations of the compounds of Example 5 were carried out.
(§2) A minimum inhibitory concentration (MIC) value is obtained using a broth, two-fold serial dilution test performed as follows: A stock solution or dispersion of the test compound, typically at a concentration of 1%, is made in a 5:3:2 solvent solution of acetone, methanol, and water. A volume of the stock solution is dispensed into culture media to give an initial starting test concentration of 500 ppm compound.
(§3) When the test is ready to be done, each vessel in the dilution series, except the first vessel, contains an equal volume of compound free broth. The first vessel contains twice the volume of broth with the starting concentration of test compound. One half of the broth from the first vessel is transferred to the second vessel. After being mixed, one half the resulting volume is removed from the second vessel and transferred to the third vessel. The entire cycle is repeated sufficiently to give a series of concentrations amounting to 500, 250, 125, 63, 31, 16, 8 and 4, 2, 1, 0.5, 0.25 ppm respectively.
(§4) Each vessel is then inoculated with a cell suspension of the appropriate test organism. Bacteria are grown in broth, fungi or agar slants for a time and at a temperature appropriate to the species being tested, and algae are a mixture of green algae and blue-green bacteria grown in a nutrient media. At the end of the growth period, in the case of bacteria, the broth is vortexed to disperse the cells.
(§5) The vessels are then incubated at the appropriate temperature. After the incubation, the vessels are examined for growth/no growth. The minimum inhibitory concentration (MIC) is defined as the lowest concentration of compounds that results in complete inhibition of growth of the test organism.

[2] = system: Pseudomonas aeruginosa; test: minimum inhibitory concentration, broth two-fold serial dilution test, Pseudomonas aeruginosa; format: cell-based, Pseudomonas aeruginosa ATCC 15442; settings: for MIC: Pseudomonas aeruginosa, ATCC15442, Pseudomonas aeruginosa ATCC 15442, TSB media, lowest concentration with complete inhibition of growth, read-out: MIC (TSB media) Psae; for MIC (TSB media) Psae: Pseudomonas aeruginosa ATCC 15442, lowest concentration with complete inhibition of growth
Experimental: as §1, §2, §3, §4, §5
1. Pseudomonas aeruginosa

[3] = system: Aspergillus niger; test: minimum inhibitory concentration, broth two-fold serial dilution test, Aspergillus niger; format: cell-based, Aspergillus niger ATCC 6275; settings: for MIC: Aspergillus niger, ATCC6275, Aspergillus niger ATCC 6275, TSB media, lowest concentration with complete inhibition of growth, read-out: MIC (TSB media) Anig; for MIC (TSB media) Anig: Aspergillus niger ATCC 6275, lowest concentration with complete inhibition of growth
Experimental: as §1, §2, §3, §4
(§6) In the case of fungi, the spores are harvested by pipetting water onto the slant and dislodging the spores with a sterile loop. The cell/spore suspension is standardized by controlling incubation time, temperature, and the volume of the diluent. The suspension is then used to inoculate the vessels containing the broth compound.
as §5
3. Aspergillus niger 6275 Anig

[4] = system: Rhodotorula rubra; test: minimum inhibitory concentration, broth two-fold serial dilution test, Rhodotorula rubra; format: cell-based; settings: lowest concentration with complete inhibition of growth; for MIC: Rhodotorula, TSB media, read-out: MIC (TSB media) Rrub
Experimental: as §1, §2, §3, §4, §6, §5
4. Rhodotorula rubra Rrub

Molecule	MIC [1] [µg/mL]	MIC [2] [µg/mL]	MIC [3] [µg/mL]	MIC [4] [µg/mL]	MIC (TSB media) Ecol [1] [ppm]	MIC (TSB media) Psae [2] [ppm]	MIC (TSB media) Anig [3] [ppm]	MIC (TSB media) Rrub [4] [ppm]
CCCCCCCCCCCCCC[N+]1(CC#CBr)CCCC1 [Compound 1, 1-tetradecyl-1-(3-bromopropargyl)-pyrrolidinium 4-methylbenzenesulfonate]	8	> 500	< 4	< 4	–	–	–	–
CCCCCCCCCCCCCC[N+]1(CC#CBr)CCOCC1 [Compound 2, 1-tetradecyl-1-(3-bromopropargyl)-morpholinium benzenesulfonate]	–	–	< 4	< 4	8	63	–	–
CCCCCCCCCCCCCC[N+]1(CC#CBr)CCOCC1 [Compound 3, 1-tetradecyl-1-(3-bromopropargyl)-morpholinium 4-methylbenzenesulfonate]	–	–	–	–	8	250	< 4	< 4
CCCCCCCCCCCCCC[N+]1(CC#CBr)CCOCC1 [Compound 4, 1-tetradecyl-1-(3-bromopropargyl)-morpholinium methanesulfonate]	–	–	–	–	32	500	< 4	< 4
CCCCCCCCCCCCCC[N+]1(CC#CBr)CCCC1 [Compound 5, 1-tetradecyl-1-(3-bromopropargyl)-pyrrolidinium benzenesulfonate]	–	–	–	–	8	500	< 4	< 4
CCCCCCCCCCCCCC[N+]1(CC#CBr)CCCCC1 [Compound 6, 1-tetradecyl-1-(3-bromopropargyl)-piperidinium methanesulfonate]	–	–	< 4	< 4	> 500	> 500	–	–
CCCCCCCCCCCCCC[N+]1(CC#CBr)CCOCC1 [Compound 7, 1-tetradecyl-1-(3-bromopropargyl)-morpholinium n-butanesulfonate]	–	–	–	–	16	500	< 4	< 4
CCCCCCCCCCCCCC[N+]1(CC#CBr)CCCC1 [Compound 8, 1-tetradecyl-1-(3-bromopropargyl)-pyrrolidinium n-butanesulfonate]	–	–	–	–	< 4	250	< 4	< 4
CCCCCCCCCCCCCC[N+]1(CC#CBr)CCOCC1 [Compound 9, 1-tetradecyl-1-(3-bromopropargyl)-morpholinium bromide]	–	–	–	–	8	125	< 4	< 4
CCCCCCCCCCCCC[N+]1(CC#CBr)CCOCC1 [Compound 10, 1-tridecyl-1-(3-bromopropargyl)-morpholinium bromide]	32	250	16	< 4	–	–	–	–
CCCCCCCCCCCCCCCC[N+]1(CC#CBr)CCOCC1 [Compound 11, 1-hexadecyl-1-(3-bromopropargyl)-morpholinium bromide]	–	500	–	–	16	–	< 4	< 4
CCCCCCCCCCCC[N+]1(CC#CBr)CCOCC1 [Compound 12, 1-dodecyl-1-(3-bromopropargyl)-morpholinium 4-methylbenzenesulfonate]	63	500	16	< 4	–	–	–	–
CCCCCCCCCCCCCCCC[N+]1(CC#CBr)CCOCC1 [Compound 13, 1-hexadecyl-1-(3-bromopropargyl)-morpholinium methanesulfonate]	–	–	–	–	> 500	500	16	32
CCCCCCCCCCCCCC[N+]1(CC#CBr)CCCCC1C (centres unmarked) [Compound 14, 1-tetradecyl-1-(3-bromopropargyl)-(2-methyl)piperidinium 4-methylbenzenesulfonate]	< 4	–	< 4	–	–	125	–	< 4
CCCCCCCCCCCCCC[N+]1(CC#CBr)CCCCC1C (centres unmarked) [Compound 15, 1-tetradecyl-1-(3-bromopropargyl)-(2-methyl)piperidinium methanesulfonate]	–	–	–	–	5	300	3.2	< 1
CCCCCCCCCCCCCC[N+]1(CC#CBr)CCCCC1C (centres unmarked) [Compound 16, 1-tetradecyl-1-(3-bromopropargyl)-(2-methyl)piperidinium benzenesulfonate]	–	–	–	–	8	500	< 4	< 4
CCCCCCCCCCCCCC[N+]1(CC#CBr)CCCCC1 [Compound 17, 1-tetradecyl-1-(3-bromopropargyl)-piperidinium benzenesulfonate]	–	–	–	–	< 4	32	< 4	< 4
CCCCCCCC[N+](CC#CBr)(CCCCCCCC)CCCCCCCC [Compound 18, trioctyl-(3-bromopropargyl) ammonium benzenesulfonate]	< 4	16	1.6	1.6	–	–	–	–
CCCCCCCC[N+](C)(C)CC#CBr [Compound 19, dimethyloctyl(3-bromopropargyl) ammonium benzenesulfonate]	16	250	< 4	< 4	–	–	–	–
CCCCCCCC[N+](CC#CBr)(CCCCCCCC)CCCCCCCC [Compound 20, trioctyl(3-bromopropargyl) ammonium 4-methylbenzenesulfonate]	–	–	–	–	< 4	8	3.2	0.8
CCCCCC[N+](CC#CBr)(CCCCCC)CCCCCC [Compound 22, trihexyl(3-bromopropargyl) ammonium benzenesulfonate]	125	500	25	–	–	–	–	12.5
CCCCCC[N+](CC#CBr)(CCCCCC)CCCCCC [Compound 23, trihexyl(3-bromopropargyl) ammonium 4-methylbenzenesulfonate]	–	–	–	–	250	500	50	< 50
CCCCCCCCCCCC[N+](CC#CBr)(CCCCCCCCCCCC)CCCCCCCCCCCC [Compound 24, tridodecyl(3-bromopropargyl) ammonium 4-methylbenzenesulfonate]	500	500	> 50	> 50	–	–	–	–
CCCCCCCC[N+](C)(CC#CBr)CCCCCCCC [Compound 25, methyldioctyl(3-bromopropargyl) ammonium 4-methylbenzenesulfonate]	32	500	12.5	6.3	–	–	–	–
CCCCCC[N+](CC#CI)(CCCCCC)CCCCCC [Compound 31, reference compound]	63	> 500	12.5	6.3	–	–	–	–
CCCCCCCCCCCCCC[N+]1(CC#CI)CCOCC1 [Compound 32, reference compound]	8	125	4	4	–	–	–	–
CCCCCCCCCCCCCC[N+]1(CC#CI)CCCCC1 [Compound 33, reference compound]	4	125	4	2	–	–	–	–
CCCCCCCC[N+](CC#CI)(CCCCCCCC)CCCCCCCC [Compound 34, reference compound]	> 500	1.6	1.6	1.6	–	–	–	–
dimethyldodecyl ammonium 4-methylbenzenesulfonate [Compound 21]	–	–	–	–	32	250	6.3	3.2
